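In this assay, cells in 96-well plates receive the compound at five concentrations for 48 hours. Endpoints are linearly interpolated between the surrounding concentrations. At the GI50, growth is halved. TGI: concentration producing complete growth inhibition.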 Where only a bound is given, the exact number is not on record here.

Some test systems named below: LOX IMVI melanoma; MOLT-4 leukemia; RXF 393 renal; SF-268 CNS; PC-3 prostate; SNB-75 CNS; SF-295 CNS; OVCAR-5 ovarian; SK-MEL-2 melanoma; HOP-92 NSCLC.
Common to all, as to assay: NCI anticancer screen, dose series, 48 h

Take `COc1ccc2c(c1)nc(N)c1c3cccnc3cn21`: the GI50 with LOX IMVI melanoma is 0.0713 µM; in the experiment on MOLT-4 leukemia it was 0.0861 µM; in the experiment on RXF 393 renal, 0.0224 µM; in the experiment on SF-268 CNS, 0.0917 µM; in the experiment with PC-3 prostate, 0.0412 µM; in the experiment with SNB-75 CNS, 0.06 µM. The GI50 in the experiment with SF-295 CNS was 0.0365 µM; in the experiment on OVCAR-5 ovarian, 0.438 µM; with SK-MEL-2 melanoma it was 0.843 µM. For the same molecule, the TGI was 18.7 µM in the experiment on LOX IMVI melanoma; above 100 µM with MOLT-4 leukemia; 0.0777 µM in the experiment with RXF 393 renal; 76.9 µM in the experiment on SF-268 CNS; 27.7 µM in the experiment on PC-3 prostate; above 100 µM with SNB-75 CNS. In addition, the TGI in the experiment on SF-295 CNS was 1.13 µM; in the experiment with OVCAR-5 ovarian it was above 100 µM; with SK-MEL-2 melanoma it was 24.2 µM.

Consider `CC1=CC(=O)C(C(C)=Nc2ccccc2Cl)C(=O)O1` (stereo not drawn), for which the GI50 in the experiment with LOX IMVI melanoma, in the experiment on MOLT-4 leukemia, in the experiment with RXF 393 renal, with SF-268 CNS, with PC-3 prostate and in the experiment on SF-295 CNS was above 100 µM throughout. For the same molecule, the GI50 with HOP-92 NSCLC was 94.4 µM; in the experiment with OVCAR-5 ovarian, above 100 µM. Besides, the TGI with LOX IMVI melanoma, in the experiment on MOLT-4 leukemia, in the experiment with RXF 393 renal, with SF-268 CNS, with PC-3 prostate and in the experiment on SF-295 CNS was above 100 µM each time. Moreover, the TGI with HOP-92 NSCLC and with OVCAR-5 ovarian was above 100 µM throughout.

With `Fc1ccc(Nc2nccc(-c3c(-c4ccc(C(F)(F)F)cc4)nn4ncccc34)n2)cc1F`, the GI50 with LOX IMVI melanoma, with MOLT-4 leukemia, in the experiment with RXF 393 renal, in the experiment on SF-268 CNS, with PC-3 prostate and with SNB-75 CNS was above 25 µM throughout. The results for the GI50 with SF-295 CNS, in the experiment with HOP-92 NSCLC and in the experiment on OVCAR-5 ovarian were above 18.9 µM, above 25 µM and above 25 µM, respectively. The TGI in the experiment with LOX IMVI melanoma, in the experiment with MOLT-4 leukemia, in the experiment on RXF 393 renal, in the experiment on SF-268 CNS, in the experiment with PC-3 prostate and with SNB-75 CNS was above 25 µM each time. The TGI in the experiment with SF-295 CNS, with HOP-92 NSCLC and with OVCAR-5 ovarian was above 25 µM throughout.

`O=c1cccccc1NCCCCCCCCCNc1cccccc1=O`: the TGI came out at 19.1 µM with LOX IMVI melanoma; 24.9 µM in the experiment with MOLT-4 leukemia; 79.3 µM in the experiment on RXF 393 renal; 45.7 µM with SF-268 CNS; 62.9 µM in the experiment with SNB-75 CNS; 44.3 µM in the experiment on SF-295 CNS. Further, the TGI was determined as 41.6 µM in the experiment on HOP-92 NSCLC, 58 µM with OVCAR-5 ovarian and 46.8 µM in the experiment with SK-MEL-2 melanoma.

Take `COc1ccc(COCC(Cn2ccnc2)OCc2ccc(C(=O)O)cc2)cc1` (stereo not drawn): the TGI with LOX IMVI melanoma, with MOLT-4 leukemia, in the experiment on RXF 393 renal, in the experiment with SF-268 CNS, with SNB-75 CNS and in the experiment on SF-295 CNS was above 100 µM throughout. The TGI in the experiment on HOP-92 NSCLC, in the experiment with OVCAR-5 ovarian and with SK-MEL-2 melanoma was above 100 µM throughout.

On to `CC(=O)Oc1ccccc1C(=O)C1c2cccc(O)c2C(=O)c2c(O)cccc21`, for which the TGI was 4.19 µM in the experiment with LOX IMVI melanoma; 6.01 µM with MOLT-4 leukemia; 1.46 µM in the experiment on RXF 393 renal; 5.54 µM in the experiment on SF-268 CNS; 4.54 µM in the experiment with SNB-75 CNS; 2.65 µM in the experiment with SF-295 CNS. For the same molecule, the TGI stood at 3.76 µM in the experiment on HOP-92 NSCLC, 6.22 µM in the experiment with OVCAR-5 ovarian and 2.9 µM with SK-MEL-2 melanoma.

On to `CC(=O)NC(CCCN(Cc1ccccc1)C(=O)N(CCCl)N=O)C(=O)NCc1ccccc1` (stereo not drawn), for which the TGI was above 57.1 µM in the experiment with LOX IMVI melanoma; 97.5 µM with MOLT-4 leukemia; 68.9 µM in the experiment on RXF 393 renal; above 100 µM in the experiment with SF-268 CNS; 63.9 µM in the experiment on SNB-75 CNS; above 100 µM with SF-295 CNS. Besides, the values for the TGI with HOP-92 NSCLC, with OVCAR-5 ovarian and in the experiment on SK-MEL-2 melanoma were above 91.8 µM, above 100 µM and above 94.8 µM, respectively.

As for `CS(=O)(=O)Nc1cc(-c2ccc3ncnc(Nc4ccc5c(cnn5Cc5ccc(F)cc5)c4)c3c2)cnc1Cl`, the GI50 with LOX IMVI melanoma was 1.18 µM; in the experiment on MOLT-4 leukemia it was 0.801 µM; in the experiment with RXF 393 renal, 0.38 µM; in the experiment with SF-268 CNS, 0.819 µM; with PC-3 prostate, 1.8 µM; in the experiment on SNB-75 CNS it was 0.211 µM. Moreover, the GI50 was 2.06 µM in the experiment with SF-295 CNS, 1.53 µM in the experiment with OVCAR-5 ovarian and 1.09 µM in the experiment on SK-MEL-2 melanoma. Moreover, the TGI was found to be 3.27 µM in the experiment on LOX IMVI melanoma; 3.89 µM in the experiment on MOLT-4 leukemia; 2.26 µM in the experiment with RXF 393 renal; 4.51 µM in the experiment on SF-268 CNS; 8.68 µM in the experiment with PC-3 prostate; 2.97 µM with SNB-75 CNS. Moreover, the TGI in the experiment with SF-295 CNS was determined as 9.61 µM; with OVCAR-5 ovarian, 8.84 µM; in the experiment on SK-MEL-2 melanoma, 3.28 µM.

In the case of `CCOc1ccc(NC(=O)CC2SC(N)=NC2=O)cc1` (stereo not drawn), the TGI with LOX IMVI melanoma, in the experiment on MOLT-4 leukemia, in the experiment on RXF 393 renal, with SF-268 CNS, with SNB-75 CNS and with SF-295 CNS was above 100 µM throughout. The TGI in the experiment on HOP-92 NSCLC, in the experiment with OVCAR-5 ovarian and in the experiment on SK-MEL-2 melanoma was above 100 µM in each case.

For `CN(C)c1ccc(C(N)=O)cn1`, the TGI with LOX IMVI melanoma, with MOLT-4 leukemia, in the experiment on RXF 393 renal, in the experiment with SF-268 CNS, in the experiment with PC-3 prostate and in the experiment with SNB-75 CNS was above 100 µM throughout. The TGI in the experiment on SF-295 CNS, with OVCAR-5 ovarian and in the experiment with SK-MEL-2 melanoma was above 100 µM throughout.

In the case of `CN(C)C(=O)C1CCC(=C2C(=O)OC(C)(C)OC2=O)N1C` (stereo not drawn), the TGI with LOX IMVI melanoma, with MOLT-4 leukemia, with RXF 393 renal, in the experiment with SF-268 CNS, in the experiment on SNB-75 CNS and in the experiment with SF-295 CNS was above 100 µM in each case. The TGI in the experiment on HOP-92 NSCLC, with OVCAR-5 ovarian and with SK-MEL-2 melanoma was above 100 µM in each case.

The values are drawn from PubChem BioAssay (NCI).
